Measurements published in patent publication US20250213478A1, “CATIONIC LIPID HAVING DISULFIDE BOND, LIPID MEMBRANE STRUCTURE INCLUDING SAME, NUCLEIC ACID INTRODUCTION AGENT AND PHARMACEUTICAL COMPOSITION CONTAINING ANY ONE OF SAME, METHOD FOR INTRODUCING NUCLEIC ACID INTO CELL OR TARGET CELL, AND METHOD FOR PRODUCING CELLULAR PHARMACEUTICAL” (NOF Corporation, priority 2022, published 2025).

Columns and labels:
[1] = Particle size, PdI and zeta potential of mRNA-encapsulating LNPs (dynamic light scattering); format: physicochemical; settings: mRNA-encapsulating LNP, cationic lipid:DOPC:Chol=55:5:40 + about 1 mol DMG-PEG2k; for PdI / particle size: dynamic light scattering; for zeta potential: physiological pH
Method: (§1) A 10 mM ethanol solution of cationic lipid, a 5 mM ethanol solution of DOPC, and a 10 mM ethanol solution of Chol were mixed at desired ratio (cationic lipid:DOPC:Chol=55:5:40 (molar ratio)) in an Eppendorf tube to achieve the total lipid amount of 720 nmol. To the obtained mixture was further added DMG-PEG2k (2 mM ethanol solution) in an amount of about 1 mol with respect to the total amount 100 mol of cationic lipid, DOPC, and Chol, and then ethanol was added to prepare an ethanol solution of the lipid (total amount: 360 μL).
An acidic buffer solution (total amount: 1080 μL) of nucleic acid was prepared by weighing 7.2 μg of mRNA solution (0.6 mg/mL) in a 5 mL tube and adding acidic malate buffer (20 mM, pH 3.0) containing NaCl at a final concentration of 30 mM.
An acidic buffer solution of nucleic acid and an ethanol solution of lipid were each weighed in a syringe. Using an ultra high-speed nanomedicament producing apparatus NanoAssmblr (manufactured by Precision NanoSystems), LNP was prepared under the conditions of addition rate of acidic buffer solution of nucleic acid: 3 mL/min, addition rate of ethanol solution of lipid: 1 mL/min, and syringe holder temperature: 25° C., and collected in a 15 mL tube. MES buffer (pH 6.5) (3000 μL) was added to the 15 mL tube, the obtained mixture was transferred to Amicon Ultra 4, and ultrafiltration was performed under centrifugation conditions (25° C., 1000 g, 6 min) to concentrate the mixture to about 100 μL. The obtained concentrate was diluted with PBS to 4 mL, and the mixture was concentrated again under centrifugation conditions (25° C., 1000 g, 6 min), and this operation was performed twice. The obtained concentrate was diluted with PBS to a lipid concentration of 2 mM to give a dispersion containing LNP.
The particle size, PdI (Polydispersity Index), and zeta potential of the mRNA-encapsulating LNP prepared by the method of the above-mentioned 1 were measured by a dynamic light scattering method. In Comparative Example, the cationic lipid described in the aforementioned Table 3 were used.

[2] = Measurement of Liposomal pKa of LNP (TNS fluorescence); format: physicochemical; settings: LNP without nucleic acid, cationic lipid:DOPC:Chol=52.5:7.5:40 + about 1.5 mol DMG-PEG2k; pH at which relative TNS fluorescence intensity was 50%
Method: Lipid nanoparticles (LNP) without containing nucleic acid were used for the evaluation of Liposomal pKa.
as §1, with “(cationic lipid:DOPC:Chol=52.5:7.5:40” for “(cationic lipid:DOPC:Chol=55:5:40”, “about 1.5” for “about 1”
An acidic malic acid buffer (20 mM, pH 3.0) (1080 μL) containing NaCl at a final concentration of 30 mM and an ethanol solution (360 μL) of lipid were each weighed in a syringe. Using an ultra high-speed nanomedicament producing apparatus NanoAssmblr (manufactured by Precision NanoSystems), LNP was prepared under the conditions of addition rate of acidic buffer solution: 3 mL/min, addition rate of ethanol solution of lipid: 1 mL/min, and syringe holder temperature: 25° C., and collected in a 15 mL tube. MES buffer (pH 6.5) (3000 μL) was added to the 15 mL tube, the obtained mixture was transferred to Amicon Ultra 4, and ultrafiltration was performed under centrifugation conditions (25° C., 1000 g, 6 min) to concentrate the mixture to about 100 μL. The obtained concentrate was diluted with PBS to 4 mL, and the mixture was concentrated again under centrifugation conditions (25° C., 1000 g, 6 min), and this operation was performed twice. The obtained concentrate was diluted with PBS to a lipid concentration of 0.5 mM to give a dispersion containing LNP.
20 mM Citrate buffer, sodium phosphate buffer, and tris HCl buffer, each containing NaCl at a final concentration of 150 mM and adjusted to various pHs within the range of pH 3.0 to 10.0, were prepared. TNS (manufactured by Sigma) was diluted with ultrapure water to 0.6 mM. TNS solution (2 μL), dispersions (12 μL) containing LNP prepared in [Experimental Example 1], 1., and buffers adjusted to various pHs (186 μL) were added to a black 96 well plate. The plate was protected from light and shaken at 400 rpm for 10 min. The fluorescence intensity (excitation: 321 nm/emission: 447 nm) was measured using a plate reader (manufactured by TECAN). The relative fluorescence intensity was calculated as a percentage, with the maximum value of the fluorescence intensity in each LNP being 100% and the minimum value being 0%. Furthermore, the pH at which the relative fluorescence intensity was 50% was taken as Liposomal pKa. In Comparative Example, the cationic lipid described in the aforementioned Table 3 were used.

[3] = test system: HeLa cells; experiment: Evaluation of in vitro gene expression in HeLa cell (luciferase mRNA-encapsulating LNP); format: cell-based, human; settings: for cumulative luciferase luminescence intensity over 24 hr: luciferase mRNA 0.4 μg per dish, LNP cationic lipid:DOPC:Chol:DMG-PEG2k=55:5:40:1; for gene expression activity compared to Comparative Example: result in words
Method: (§2) LNP encapsulating mRNA that expresses luciferase (cationic lipid:DOPC:Chol:DMG-PEG2k=55:5:40:1 (molar ratio)) was prepared by the method described in [Experimental Example 2], 1.
HeLa cells, which are human cervical cancer cells, were seeded in a 3.5 cm dish at 5.0×10^4 cells/2 mL/Dish 24 hours before transfection. After 24 hours, the medium was exchanged with a culture medium (D-MEM) containing 0.1 mM D-luciferin. Prepared mRNA-encapsulating LNP was diluted with PBS such that the concentration of mRNA was about 8 μg/mL. The diluted mRNA-encapsulating LNP solution (about 50 μL, mRNA: 0.4 μg) was added to the 3.5 cm dish and set in an incubator luminometer KronosDio. The luminescence intensity of luciferase was measured for 2 min every one hour. The cumulative luciferase luminescence intensity for 24 hr was calculated from the obtained time change of expression. For example, “1.0E+06” means “1.0×10^6”. In Comparative Example, the cationic lipid described in the aforementioned Table 3 were used.

[4] = test system: BALB/c mouse; experiment: Evaluation of in vivo gene expression (luciferase mRNA-encapsulating LNP, IVIS of isolated organs)
Method: as §2
The prepared each mRNA-encapsulating LNP dispersion was administered from the tail vein of BALB/c mouse (male, 5-week-old). The dose of mRNA was set to 0.05 mg per 1 kg body weight of the mouse, and the dose of the mRNA-encapsulating LNP dispersion was set to 10 μL per 1 g body weight of the mouse. After 4.5 hr from the administration of the mRNA-encapsulating LNP dispersion, a PBS solution of D-luciferin potassium was administered into the abdominal cavity of the mouse. The dose of D-luciferin potassium was set to 3 mg per mouse, and the dose of the PBS solution of D-luciferin potassium was set to 200 μL per mouse. After 15 min from the administration of the PBS solution of D-luciferin potassium, the mouse was euthanized, and the liver, spleen, kidney, heart, and lung were isolated. The luminescence in each organ was quantified using an in vivo imaging system (IVIS) with an exposure of 10 sec. The amount of luminescence in each organ was quantified by image analysis using Live Imaging software attached to IVIS. The amount of luminescence (photons/sec) was calculated from the acquired image and used as an index of gene expression activity. “E+0a” (a: integer) indicated in Table 7 and Table 8 means “10^a”. For example, “1.0E+02” means “1.0×10^2”. In Comparative Example, the cationic lipid described in the aforementioned Table 3 were used.

Structure (SMILES)	PdI [1]	particle size [1] [nm]	zeta potential [1] [mV]	pKa [2]	cumulative luciferase luminescence intensity over 24 hr [3] [RLU]	further results
CCCCCCCCC(CCCCCC)C(=O)Oc1ccc(CC(=O)OCCSSCCOC(=O)CN(C)C)cc1 (stereo not drawn) [Example 1]	0.072	82	−3.4	5.7		
CCCCCCCCCCC(CCCCCCCCCC)C(=O)Oc1ccc(CC(=O)OCCSSCCOC(=O)CN(C)C)cc1 [Example 2]	0.072	84	−2.9	5.7		
CCCCCCCCCCCCCCC(CCCCCCCCCCCCCC)C(=O)Oc1ccc(CC(=O)OCCSSCCOC(=O)CN(C)C)cc1 [Example 3]	0.078	90	−3.0			
CCCCCCCCC(CCCCCC)C(=O)Oc1ccc(CC(=O)OCCSSCCOC(=O)CCCN(C)C)cc1 (stereo not drawn) [Example 4]	0.116	64	12.2	7.8	3.09E+05	
CCCCCCCC/C=C\CCCCCCCC(=O)Oc1ccc(CC(=O)OCCSSCCOC(=O)CN(C)C)cc1OC(=O)CCCCCCC/C=C\CCCCCCCC [Example 14]	0.071	67	−4.1			
CCCCCCCCCCCCCCCCC(CCCCCCCCCCCCCCCC)C(=O)Oc1ccc(CC(=O)OCCSSCCN(C)C)cc1 [Example 16]	0.067	97	−2.5	6.4		
CCCCCCCCCCCCCCCCC(CCCCCCCCCCCCCCCC)C(=O)Oc1ccc(CC(=O)NCCSSCCNC(=O)CCCN(C)C)cc1 [Example 20]				8.8		relative value based on Comparative Example (amount of luminescence in spleen) ([4]; spleen, relative to O-Ph-P4C2 LNP = 1.00): 0.05; amount of luminescence in each organ: heart ([4]; tail vein, mRNA 0.05 mg/kg, 4.5 hr + 15 min after administration, heart): 6.26E+05 photons/sec; amount of luminescence in each organ: kidney ([4]; tail vein, mRNA 0.05 mg/kg, 4.5 hr + 15 min after administration, kidney): 4.34E+05 photons/sec; amount of luminescence in each organ: liver ([4]; tail vein, mRNA 0.05 mg/kg, 4.5 hr + 15 min after administration, liver): 4.95E+05 photons/sec; amount of luminescence in each organ: lung ([4]; tail vein, mRNA 0.05 mg/kg, 4.5 hr + 15 min after administration, lung): 3.68E+05 photons/sec; amount of luminescence in each organ: spleen ([4]; tail vein, mRNA 0.05 mg/kg, 4.5 hr + 15 min after administration, spleen (Table 7)): 5.18E+05 photons/sec
CCCCCCCCCCCCCCCCC(CCCCCCCCCCCCCCCC)C(=O)Oc1ccc(CC(=O)OCCSSCCOC(=O)NCCN2CCOCC2)cc1 [Example 26]				5.7	3.29E+05	
CCCCCCCCCCCCCCCCC(CCCCCCCCCCCCCCCC)C(=O)Oc1ccc(CC(=O)OCCSSCCOC(=O)NCCN(CCCC)CCCC)cc1 [Example 27]				5.7	9.60E+05	
CCCCCCCCCCCCCCCC(=O)OCC(C)(COC(=O)CCCCCCCCCCCCCCC)C(=O)Oc1ccc(CC(=O)OCCSSCCOC(=O)NCCN(CC)CC)cc1 [Example 32]				7.2	8.77E+07	gene expression activity compared to Comparative Example [3]: superior gene expression activity
CCCCCCCCCCCCCCCCCC(=O)OCC(C)(COC(=O)CCCCCCCCCCCCCCCCC)C(=O)Oc1ccc(CC(=O)OCCSSCCOC(=O)NCCN(CC)CC)cc1 [Example 33]				7.1	5.38E+06	
CCCCCCCCCCCCCCCCC(CCCCCCCCCCCCCCCC)C(=O)Oc1ccc(CC(=O)OCCSSCCOC(=O)/C=C/CN(C)C)cc1 [Example 38]	0.106	106	−3.8		1.31E+05	
CCCCCCCCCCCCCCCCC(CCCCCCCCCCCCCCCC)C(=O)Oc1ccc(CC(=O)OCCSSCCOC(=O)/C=C/CN(CC)CC)cc1 [Example 39]	0.128	107	−5.3		3.95E+04	
CCCCCCCCCCCCCCCCC(CCCCCCCCCCCCCCCC)C(=O)Oc1ccc(CC(=O)OCCSSCCOC(=O)/C=C/CN(CC)CCO)cc1 [Example 40]	0.104	89	0.1		2.33E+05	
CCCCCCCCCCCCCCCCC(CCCCCCCCCCCCCCCC)C(=O)Oc1ccc(CC(=O)OCCCCSSCCCCOC(=O)CCCN(C)C)cc1 [Example 41]	0.091	80	4.0			
CCCCCCCC/C=C\CCCCCCCC(=O)Oc1ccc(CC(=O)OCC(C)(COC(=O)Cc2ccc(OC(=O)CCCCCCC/C=C\CCCCCCCC)cc2)C(=O)OCCSSCCOC(=O)NCCN(CC)CC)cc1 [Example 42]				7.3	3.62E+07	gene expression activity compared to Comparative Example [3]: superior gene expression activity
